11 compounds from patent publication US11129819B2, “Fumarate analogs and uses thereof” (Rigel Pharmaceuticals, Inc., priority 2014, dated 2021) can be followed below.

Counter-ions that a name gives are not always drawn.

For the first experiment, the system named is experimental autoimmune encephalomyelitis (EAE). The experiment is described as follows: Autoimmune encephalitis (EAE) in vivo assay in mice. Set-up: species or system C57BL/6 mice. The following applies: dosed at 60 mg/kg beginning on the day of immunization, 60 mg/kg.
As for `COC(=O)/C=C/n1nn[nH]c1=O` [Compound 1, methyl (E)-3-(5-oxo-4,5-dihydro-1H-tetrazol-1-yl)acrylate], the “onset of disease paralysis” value is recorded as “significantly prevented the onset of disease paralysis”.

The experiment is the same for the next values; noted with them: dosed at 60 mg/kg beginning on the day of immunization, listed as compound 1, 60 mg/kg.
Regarding `COC(=O)/C=C/n1nn[nH]c1=O` [Compound 1, methyl (E)-3-(5-oxo-4,5-dihydro-1H-tetrazol-1-yl)acrylate], the “onset of disease paralysis” value is “significantly prevents the onset of disease paralysis”.

Another experiment deals with NrF2 (Nuclear factor (erythroid-derived 2)-like 2). As to the kind of experiment: NrF2 activation in a whole cell nuclear translocation assay. It counts as cell-based. The following applies: read-out: NrF2 translocation assay EC50. On the procedure: NrF2 Activation in a Whole Cell Nuclear Translocation Assay Compounds were tested in a NrF2 (Nuclear factor (erythroid-derived 2)-like 2) translocation assay by adapting the methods set forth in U.S. Pat. No. 8,101,373, the disclosure of which is incorporated herein by reference.
For `COC(=O)/C=C/n1nn[nH]c1=O` [Compound 1, methyl (E)-3-(5-oxo-4,5-dihydro-1H-tetrazol-1-yl)acrylate], the EC50 (usually the concentration needed to bring the measured effect to its halfway point) was found to be 61 µM.
For the compound `COC(=O)/C=C/n1nnn(C(C)C)c1=O` [Compound 6, methyl (E)-3-(4-isopropyl-5-oxo-4,5-dihydro-1H-tetrazol-1-yl)acrylate], the half-maximal effective concentration (EC50) is 7.8 µM.
Consider `COC(=O)/C=C/n1nnn(C(=O)N(C)C)c1=O` [Compound 10, Methyl (E)-3-(4-(dimethylcarbamoyl)-5-oxo-4,5-dihydro-1H-tetrazol-1-yl)acrylate], for which the EC50 is 6.1 µM.
Take `COC(=O)/C=C/n1nnn(C2CCCC2)c1=O` [Compound 11, methyl (E)-3-(4-cyclopentyl-5-oxo-4,5-dihydro-1H-tetrazol-1-yl)acrylate]: the EC50 is 5.4 µM.
Still for that read-out and setting: the value for `COC(=O)/C=C/n1nnn(C2CCOCC2)c1=O` [Compound 12, methyl (E)-3-(5-oxo-4-(tetrahydro-2H-pyran-4-yl)-4,5-dihydro-1H-tetrazol-1-yl)acrylate] was 10.4 µM.
On to `COC(=O)/C=C/n1nnn(CC(=O)OC)c1=O` [Compound 14, methyl (E)-3-(4-(2-methoxy-2-oxoethyl)-5-oxo-4,5-dihydro-1H-tetrazol-1-yl)acrylate], for which the EC50 was found to be 6.7 µM.
Still for that read-out and setting: the value for `COC(=O)/C=C/n1nnn(-c2ccccc2)c1=O` [Compound 16, methyl (E)-3-(5-oxo-4-phenyl-4,5-dihydro-1H-tetrazol-1-yl)acrylate] was 1 µM; that for `COC(=O)/C=C/n1nnn(/C=C/C(=O)OC)c1=O` [Compound 20, dimethyl 3,3′-(5-oxo-1H-tetrazole-1,4(5H)-diyl)(2E,2′E)-diacrylate] was 0.7 µM; that for `COC(=O)/C=C/n1nnn(C2CC2)c1=O` [Compound 21, methyl (E)-3-(4-cyclopropyl-5-oxo-4,5-dihydro-1H-tetrazol-1-yl)acrylate] was 7.2 µM.

The same experiment, now with this note: reference fumarates, read-out: NrF2 activation EC50.
For `COC(=O)/C=C/C(=O)O` [Monomethyl fumarate, monomethyl fumarate, reference compound], the EC50 was ~127 µM.
Take `COC(=O)/C=C/C(=O)OC` [dimethyl fumarate, reference compound]: the EC50 is ~7.9 µM.
